Columns and labels:
Type in all cases: functional, organism-based
Parameters in all cases: conc 20 uM
[1] = tested on: Mycobacteroides abscessus; assay: (§1) Inhibition of mycobacterial growth using the resazurin microtitre cell viability assay (REMA), compounds at final concentration of 20 µM (2% v/v DMSO). Hits were classed as compounds that inhibited bacterial growth by 70% or more compared to drug-free controls.; conditions: ATCC19977
[2] = tested on: Mycobacterium tuberculosis; assay: as §1; conditions: H37Rv
[3] = tested on: Mycobacterium intracellulare subsp. chimaera; assay: as §1; conditions: NCTC13781

Substance: MMV687706
- Survival [1]: 108%
- Survival [2]: 99.8%
- Survival [3]: 92.7%

Substance: MMV687729
- Survival [1]: 112%
- Survival [2]: 13.1%
- Survival [3]: 30.5%

Substance: MMV687730
- Survival [1]: 18.8%
- Survival [2]: 71.2%
- Survival [3]: 87.3%

Substance: MMV687747
- Survival [1]: 108%
- Survival [2]: 63.6%
- Survival [3]: 90.2%

Substance: MMV687749
- Survival [1]: 113%
- Survival [2]: 73.3%
- Survival [3]: 96.9%

Substance: MMV687762
- Survival [1]: 112%
- Survival [2]: 95.8%
- Survival [3]: 101%

Substance: MMV687765
- Survival [1]: 116%
- Survival [2]: 26.4%
- Survival [3]: 59%

Substance: MMV687775
- Survival [1]: 122%
- Survival [2]: 91%
- Survival [3]: 98.2%

Substance: MMV687776
- Survival [1]: 124%
- Survival [2]: 90.5%
- Survival [3]: 99.3%

Substance: MMV687794
- Survival [1]: 109%
- Survival [2]: 90.9%
- Survival [3]: 99.9%

Substance: MMV687796
- Survival [1]: 99%
- Survival [2]: 9.75%
- Survival [3]: 102%

Substance: MMV687798
- Survival [1]: 11.5%
- Survival [2]: 7.23%
- Survival [3]: 1.47%

Substance: MMV687800
- Survival [1]: 109%
- Survival [2]: 6.34%
- Survival [3]: 6.51%

Substance: MMV687801
- Survival [1]: 114%
- Survival [2]: 58.9%
- Survival [3]: 31.5%

Substance: MMV687803
- Survival [1]: 24.5%
- Survival [2]: 17.4%
- Survival [3]: 10.8%

Substance: MMV687807
- Survival [1]: 103%
- Survival [2]: 4.61%
- Survival [3]: 82.9%

Substance: MMV687812
- Survival [1]: 26.9%
- Survival [2]: 26%
- Survival [3]: 41%

Substance: MMV687813
- Survival [1]: 102%
- Survival [2]: 5.59%
- Survival [3]: 34.4%

Substance: MMV688122
- Survival [1]: 111%
- Survival [2]: 2.87%
- Survival [3]: 96.7%

Substance: MMV688124
- Survival [1]: 116%
- Survival [2]: 94.7%
- Survival [3]: 107%

Substance: MMV688125
- Survival [1]: 114%
- Survival [2]: 13.8%
- Survival [3]: 107%

Substance: MMV688178
- Survival [1]: 107%
- Survival [2]: 103%
- Survival [3]: 97.1%

Substance: MMV688179
- Survival [1]: 17.6%
- Survival [2]: 1.64%
- Survival [3]: 2.34%

Substance: MMV688180
- Survival [1]: 116%
- Survival [2]: 94%
- Survival [3]: 101%

Substance: MMV688262
- Survival [1]: 106%
- Survival [2]: 8.6%
- Survival [3]: 113%

Substance: MMV688270
- Survival [1]: 101%
- Survival [2]: 83%
- Survival [3]: 98.1%

Substance: MMV688271
- Survival [1]: 108%
- Survival [2]: 1.1%
- Survival [3]: 3.73%

Substance: MMV688273
- Survival [1]: 100%
- Survival [2]: 97.8%
- Survival [3]: 106%

Substance: MMV688274
- Survival [1]: 113%
- Survival [2]: 86%
- Survival [3]: 112%

Substance: MMV688279
- Survival [1]: 110%
- Survival [2]: 32.5%
- Survival [3]: 114%

Substance: MMV688283
- Survival [1]: 116%
- Survival [2]: 89.4%
- Survival [3]: 112%

Substance: MMV688313
- Survival [1]: 94.8%
- Survival [2]: 102%
- Survival [3]: 104%

Substance: MMV688327
- Survival [1]: 18.6%
- Survival [2]: 7.39%
- Survival [3]: -1.9%

Substance: MMV688330
- Survival [1]: 99.9%
- Survival [2]: 99.6%
- Survival [3]: 103%

Substance: MMV688345
- Survival [1]: 113%
- Survival [2]: 86%
- Survival [3]: 86.9%

Substance: MMV688350
- Survival [1]: 102%
- Survival [2]: 105%
- Survival [3]: 92.5%

Substance: MMV688352
- Survival [1]: 107%
- Survival [2]: 89.6%
- Survival [3]: 103%

Substance: MMV688360
- Survival [1]: 100%
- Survival [2]: 100%
- Survival [3]: 94.3%

Substance: MMV688361
- Survival [1]: 116%
- Survival [2]: 92.9%
- Survival [3]: 88.9%

Substance: MMV688362
- Survival [1]: 109%
- Survival [2]: 103%
- Survival [3]: 90.2%

Substance: MMV688364
- Survival [1]: 111%
- Survival [2]: 82.7%
- Survival [3]: 89.9%

Substance: MMV688371
- Survival [1]: 119%
- Survival [2]: 111%
- Survival [3]: 107%

Substance: MMV688372
- Survival [1]: 104%
- Survival [2]: 88.8%
- Survival [3]: 112%

Substance: MMV688407
- Survival [1]: 116%
- Survival [2]: 94%
- Survival [3]: 106%

Substance: MMV688410
- Survival [1]: 105%
- Survival [2]: 95.3%
- Survival [3]: 105%

Substance: MMV688411
- Survival [1]: 114%
- Survival [2]: 90%
- Survival [3]: 89.9%

Substance: MMV688415
- Survival [1]: 101%
- Survival [2]: 88.9%
- Survival [3]: 97.2%

Substance: MMV688416
- Survival [1]: 103%
- Survival [2]: 99.5%
- Survival [3]: 94.7%

Substance: MMV688417
- Survival [1]: 104%
- Survival [2]: 82.3%
- Survival [3]: 106%

Substance: MMV688466
- Survival [1]: 115%
- Survival [2]: 93.2%
- Survival [3]: 106%

Substance: MMV688467
- Survival [1]: 118%
- Survival [2]: 95.5%
- Survival [3]: 111%

Substance: MMV688469
- Survival [1]: 87.3%
- Survival [2]: 90.9%
- Survival [3]: 82.8%

Substance: MMV688470
- Survival [1]: 106%
- Survival [2]: 94.8%
- Survival [3]: 95.7%

Substance: MMV688471
- Survival [1]: 109%
- Survival [2]: 87.8%
- Survival [3]: 98.6%

Substance: MMV688472
- Survival [1]: 103%
- Survival [2]: 98%
- Survival [3]: 92.3%

Substance: MMV688474
- Survival [1]: 106%
- Survival [2]: 94%
- Survival [3]: 100%

Substance: MMV688508
- Survival [1]: 18.6%
- Survival [2]: 7.31%
- Survival [3]: -0.22%

Substance: MMV688509
- Survival [1]: 119%
- Survival [2]: 91.6%
- Survival [3]: 110%

Substance: MMV688514
- Survival [1]: 111%
- Survival [2]: 91.7%
- Survival [3]: 100%

Substance: MMV688543
- Survival [1]: 101%
- Survival [2]: 89%
- Survival [3]: 97.2%

Substance: MMV688547
- Survival [1]: 116%
- Survival [2]: 95.2%
- Survival [3]: 102%

Substance: MMV688548
- Survival [1]: 115%
- Survival [2]: 91.6%
- Survival [3]: 101%

Substance: MMV688550
- Survival [1]: 105%
- Survival [2]: 95.8%
- Survival [3]: 99%

Substance: MMV688552
- Survival [1]: 107%
- Survival [2]: 81%
- Survival [3]: 103%

Substance: MMV688553
- Survival [1]: 105%
- Survival [2]: 54%
- Survival [3]: 91.3%

Substance: MMV688554
- Survival [1]: 115%
- Survival [2]: 76%
- Survival [3]: 102%

Substance: MMV688555
- Survival [1]: 108%
- Survival [2]: 46.8%
- Survival [3]: 92.5%

Substance: MMV688557
- Survival [1]: 101%
- Survival [2]: 95.7%
- Survival [3]: 101%

Substance: MMV688703
- Survival [1]: 108%
- Survival [2]: 102%
- Survival [3]: 103%

Substance: MMV688704
- Survival [1]: 106%
- Survival [2]: 92.8%
- Survival [3]: 98.7%

Substance: MMV688754
- Survival [1]: 109%
- Survival [2]: 92.9%
- Survival [3]: 103%

Substance: MMV688755
- Survival [1]: 111%
- Survival [2]: 7.68%
- Survival [3]: 107%

Substance: MMV688756
- Survival [1]: 50%
- Survival [2]: 13.4%
- Survival [3]: 2.59%

Substance: MMV688761
- Survival [1]: 113%
- Survival [2]: 108%
- Survival [3]: 108%

Substance: MMV688762
- Survival [1]: 121%
- Survival [2]: 89%
- Survival [3]: 96.2%

Substance: MMV688763
- Survival [1]: 122%
- Survival [2]: 21.8%
- Survival [3]: 99.1%

Substance: MMV688766
- Survival [1]: 111%
- Survival [2]: 88.4%
- Survival [3]: 104%

Substance: MMV688768
- Survival [1]: 109%
- Survival [2]: 87%
- Survival [3]: 93.9%

Substance: MMV688771
- Survival [1]: 98.2%
- Survival [2]: 91.4%
- Survival [3]: 91.7%

Substance: MMV688773
- Survival [1]: 122%
- Survival [2]: 82.8%
- Survival [3]: 94.7%

Substance: MMV688774
- Survival [1]: 107%
- Survival [2]: 100%
- Survival [3]: 79.3%

Substance: MMV688775
- Survival [1]: 15.1%
- Survival [2]: 4.71%
- Survival [3]: 1.46%

Substance: MMV688776
- Survival [1]: 115%
- Survival [2]: 127%
- Survival [3]: 100%

Substance: MMV688793
- Survival [1]: 114%
- Survival [2]: 89.7%
- Survival [3]: 101%

Substance: MMV688795
- Survival [1]: 105%
- Survival [2]: 77.7%
- Survival [3]: 105%

Substance: MMV688796
- Survival [1]: 103%
- Survival [2]: 99.3%
- Survival [3]: 93.4%

Substance: MMV688797
- Survival [1]: 113%
- Survival [2]: 80.5%
- Survival [3]: 96.5%

Substance: MMV688798
- Survival [1]: 103%
- Survival [2]: 102%
- Survival [3]: 95.2%

Substance: MMV688844
- Survival [1]: 11.7%
- Survival [2]: 15.4%
- Survival [3]: 4.25%

Substance: MMV688845
- Survival [1]: 24.1%
- Survival [2]: 6.47%
- Survival [3]: 1.95%

Substance: MMV688846
- Survival [1]: 20.9%
- Survival [2]: 69.2%
- Survival [3]: 112%

Substance: MMV688852
- Survival [1]: 115%
- Survival [2]: 107%
- Survival [3]: 103%

Substance: MMV688853
- Survival [1]: 111%
- Survival [2]: 94.5%
- Survival [3]: 102%

Substance: MMV688854
- Survival [1]: 114%
- Survival [2]: 111%
- Survival [3]: 111%

Substance: MMV688888
- Survival [1]: 95.5%
- Survival [2]: 23.3%
- Survival [3]: 37.8%

Substance: MMV688889
- Survival [1]: 105%
- Survival [2]: 58.9%
- Survival [3]: 89.4%

Substance: MMV688891
- Survival [1]: 109%
- Survival [2]: 101%
- Survival [3]: 113%

Substance: MMV688921
- Survival [1]: 110%
- Survival [2]: 110%
- Survival [3]: 109%

Substance: MMV688934
- Survival [1]: 112%
- Survival [2]: 101%
- Survival [3]: 104%

Substance: MMV688936
- Survival [1]: 106%
- Survival [2]: 82.6%
- Survival [3]: 98.9%

Substance: MMV688938
- Survival [1]: 118%
- Survival [2]: 119%
- Survival [3]: 88.3%

Substance: MMV688939
- Survival [1]: 97.6%
- Survival [2]: 48.9%
- Survival [3]: 95.4%

Substance: MMV688941
- Survival [1]: 120%
- Survival [2]: 69.8%
- Survival [3]: 104%

Substance: MMV688942
- Survival [1]: 112%
- Survival [2]: 85.1%
- Survival [3]: 98.6%

Substance: MMV688943
- Survival [1]: 112%
- Survival [2]: 89.7%
- Survival [3]: 100%

Substance: MMV688955
- Survival [1]: 89.9%
- Survival [2]: 103%
- Survival [3]: 94.2%

Substance: MMV688958
- Survival [1]: 109%
- Survival [2]: 91.1%
- Survival [3]: 97.7%

Substance: MMV688978
- Survival [1]: 106%
- Survival [2]: 5.27%
- Survival [3]: 105%

Substance: MMV688980
- Survival [1]: 87.1%
- Survival [2]: 99.6%
- Survival [3]: 92%
